For data set [1], the target named is T1, airway epithelial sodium currents (sodium channel) (UniProt A0A8I3MKE6+A0A8I3Q679+Q95165).
T1 sequence (A0A8I3MKE6 1-646): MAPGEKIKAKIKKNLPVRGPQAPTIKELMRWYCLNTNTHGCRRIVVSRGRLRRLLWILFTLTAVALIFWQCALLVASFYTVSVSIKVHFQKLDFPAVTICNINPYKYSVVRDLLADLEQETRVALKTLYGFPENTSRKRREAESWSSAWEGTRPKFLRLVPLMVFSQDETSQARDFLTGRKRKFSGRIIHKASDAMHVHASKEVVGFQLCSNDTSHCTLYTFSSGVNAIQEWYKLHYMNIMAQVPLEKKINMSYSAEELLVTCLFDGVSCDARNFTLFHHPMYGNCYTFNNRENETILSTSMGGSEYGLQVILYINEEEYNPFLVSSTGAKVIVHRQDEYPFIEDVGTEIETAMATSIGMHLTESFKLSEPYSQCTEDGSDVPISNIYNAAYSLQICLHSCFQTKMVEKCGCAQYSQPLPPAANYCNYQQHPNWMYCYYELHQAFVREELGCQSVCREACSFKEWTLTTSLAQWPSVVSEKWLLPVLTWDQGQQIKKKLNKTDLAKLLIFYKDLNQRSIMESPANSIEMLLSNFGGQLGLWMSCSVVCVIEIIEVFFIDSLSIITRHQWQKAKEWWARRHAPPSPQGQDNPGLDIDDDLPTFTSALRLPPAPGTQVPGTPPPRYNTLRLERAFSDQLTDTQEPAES
T1 sequence (A0A8I3Q679 1-649): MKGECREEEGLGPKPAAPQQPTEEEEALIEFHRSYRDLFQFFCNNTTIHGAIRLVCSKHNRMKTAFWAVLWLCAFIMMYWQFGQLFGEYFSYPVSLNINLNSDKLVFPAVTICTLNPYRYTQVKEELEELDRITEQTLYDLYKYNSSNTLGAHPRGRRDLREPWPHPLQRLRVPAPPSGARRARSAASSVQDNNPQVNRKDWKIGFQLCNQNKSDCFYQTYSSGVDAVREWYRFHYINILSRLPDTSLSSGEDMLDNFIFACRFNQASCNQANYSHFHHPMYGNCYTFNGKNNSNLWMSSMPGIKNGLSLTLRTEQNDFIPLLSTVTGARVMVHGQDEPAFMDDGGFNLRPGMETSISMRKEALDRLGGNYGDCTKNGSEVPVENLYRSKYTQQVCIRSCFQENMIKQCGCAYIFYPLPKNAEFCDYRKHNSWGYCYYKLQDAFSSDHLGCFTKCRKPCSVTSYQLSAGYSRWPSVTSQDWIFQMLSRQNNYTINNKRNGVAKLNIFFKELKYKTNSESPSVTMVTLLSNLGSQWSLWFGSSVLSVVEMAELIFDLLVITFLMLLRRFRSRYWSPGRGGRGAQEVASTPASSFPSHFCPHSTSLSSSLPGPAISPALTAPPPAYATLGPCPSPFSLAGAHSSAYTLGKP
T1 sequence (Q95165 1-641): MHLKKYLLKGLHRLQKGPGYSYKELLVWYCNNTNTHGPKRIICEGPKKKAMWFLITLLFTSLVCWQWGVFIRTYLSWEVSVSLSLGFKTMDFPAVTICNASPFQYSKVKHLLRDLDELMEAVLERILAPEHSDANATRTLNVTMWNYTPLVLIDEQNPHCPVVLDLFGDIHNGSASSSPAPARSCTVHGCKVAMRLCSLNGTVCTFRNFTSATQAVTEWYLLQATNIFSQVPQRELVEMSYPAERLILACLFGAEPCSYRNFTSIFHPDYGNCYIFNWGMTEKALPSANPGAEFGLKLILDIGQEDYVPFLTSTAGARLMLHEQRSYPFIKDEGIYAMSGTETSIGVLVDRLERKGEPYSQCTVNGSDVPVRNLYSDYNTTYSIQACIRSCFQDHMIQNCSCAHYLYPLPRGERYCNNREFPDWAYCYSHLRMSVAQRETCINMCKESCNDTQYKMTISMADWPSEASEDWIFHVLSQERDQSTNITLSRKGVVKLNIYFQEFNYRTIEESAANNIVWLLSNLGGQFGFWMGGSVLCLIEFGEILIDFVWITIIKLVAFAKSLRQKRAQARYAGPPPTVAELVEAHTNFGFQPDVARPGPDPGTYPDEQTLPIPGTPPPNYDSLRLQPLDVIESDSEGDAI
Description: Sodium channel blocking activity: inhibition of short circuit current (ISC) in airway epithelial monolayers mounted in Ussing chambers. The note with it: for Fold Amiloride** (PSA 4022 = 100): relative potency for PSA 4022 = 100 using EC50 from PSA 4022 in same run; for EC50: Selected Alaphatic Pyrazinoylguanidines (Formula II), mean ± spread, read-out: EC50. Type of data set: cell-based, human, dog, sheep or rodent. The protocol:
In Vitro Measure of Sodium Channel Blocking Activity and Reversibility
One assay used to assess mechanism of action and/or potency of the compounds of the present invention involves the determination of lumenal drug inhibition of airway epithelial sodium currents measured under short circuit current (ISC) using airway epithelial monolayers mounted in Ussing chambers. Cells obtained from freshly excised human, dog, sheep or rodent airways are seeded onto porous 0.4 micron Snapwell™ Inserts (CoStar), cultured at air-liquid interface (ALI) conditions in hormonally defined media, and assayed for sodium transport activity (ISC) while bathed in Krebs Bicarbonate Ringer (KBR) in Using chambers. All test drug additions are to the lumenal bath with half-log dose addition protocols (from 1×10^−11 M to 3×10^−5 M), and the cumulative change in ISC (inhibition) recorded. All drugs are prepared in dimethyl sulfoxide as stock solutions at a concentration of 1×10^−2 M and stored at −20° C. Eight preparations are typically run in parallel; two preparations per run incorporate amiloride and/or benzamil as positive controls. After the maximal concentration (5×10^−5 M) is administered, the lumenal bath is exchanged three times with fresh drug-free KBR solution, and the resultant ISC measured after each wash for approximately 5 minutes in duration. Reversibility is defined as the percent return to the baseline value for sodium current after the third wash. All data from the voltage clamps are collected via a computer interface and analyzed off-line.
Dose-effect relationships for all compounds are considered and analyzed by the Prism 3.0 program. IC50 values, maximal effective concentrations, and reversibility are calculated and compared to amiloride and benzamil as positive controls.

Where a name gives a salt, the structure may show the parent alone.

On to `N=C(NCCCCCCCCCCN)NC(=O)c1nc(Cl)c(N)nc1N` (as salt: hydrochloride) [compound 19487, N-(10-aminodecyl)-N′-(3,5-diamino-6-chloropyrazine-2-carbonyl)-guanidine dihydrochloride], for which the melting point was in the range of 168 to 170 °C. On the same count and under the same terms, with `N=C(N)NCCCCCCCCNC(=N)NC(=O)c1nc(Cl)c(N)nc1N` (as salt: hydrochloride) [compound 19604, N-{8-[N′-(3,5-diamino-6-chloropyrazine-2-carbonyl)guanidino]octyl}-guanidine dihydrochloride] the figure was 130 to 132 °C; with `N=C(N)NCCCCCCCCCCNC(=N)NC(=O)c1nc(Cl)c(N)nc1N` (as salt: hydrochloride) [compound 23608, N-{10-[N′-(3,5-diamino-6-chloropyrazine-2-carbonyl)guanidino]-decyl}guanidine dihydrochloride], 156 to 158 °C; with `N=C(NCCCCCCCCCCCCN)NC(=O)c1nc(Cl)c(N)nc1N` (as salt: hydrochloride) [compound 23609, N-(12-aminododecyl)-N′-(3,5-diamino-6-chloropyrazine-2-carbonyl)-guanidine dihydrochloride], 235 to 237 °C. Compound `N=C(NCCCCCCCCCCCN)NC(=O)c1nc(Cl)c(N)nc1N` (as salt: hydrochloride) [compound 23682, N-(11-aminoundecyl)-N′-(3,5-diamino-6-chloropyrazine-2-carbonyl)guanidine dihydrochloride] gave a melting point of 220 to 222 °C. Still for that read-out and setting: in the case of `N=C(N)NCCCCCCCCCCCCNC(=N)NC(=O)c1nc(Cl)c(N)nc1N` (as salt: hydrochloride) [compound 23683, N-{12-[N′-(3,5-diamino-6-chloropyrazine-2-carbonyl)guanidino]dodecyl)guanidine dihydrochloride] it was 145 to 147 °C; in that of `N=C(N)NCCCCCCCCCCCNC(=N)NC(=O)c1nc(Cl)c(N)nc1N` (as salt: hydrochloride) [compound 23991, N-{11-[N′-(3,5-diamino-6-chloropyrazine-2-carbonyl)guanidino]-undecyl}guanidine dihydrochloride], 151 to 153 °C; in that of `N=C(NCCCCC1CCN(CCO)CC1)NC(=O)c1nc(Cl)c(N)nc1N` (as salt: hydrochloride) [compound 25193, N-(3,5-diamino-6-chloropyrazine-2-carbonyl)-N′-{4-[1-(2-hydroxyethyl)piperidin-4-yl]butyl}guanidine dihydrochloride], 168 to 170 °C. `N=C(NCCCCc1ccc(OCC(O)COCC(O)CO)cc1)NC(=O)c1nc(Cl)c(N)nc1N` (centres unmarked) [compound 15143, N-(3,5-diamino-6-chloropyrazine-2-carbonyl)-N′-(4-{4-[3-(2,3-dihydroxypropoxy)-2-hydroxypropoxy]phenyl}butyl)guanidine]: the melting point was 73 to 82 °C (dec.). The “Fold Amiloride** (PSA 4022 = 100)” value in data set [1] (Capped Pyrazinoylguanidines) turned out to be 107 ± 11.

In turn, `N#CCOc1ccc(CCCCNC(=N)NC(=O)c2nc(Cl)c(N)nc2N)cc1` [compound 16208, N-[4-(4-cyanomethoxyphenyl)butyl]-N′-(3,5-diamino-6-chloro-pyrazine-2-carbonyl)guanidine] had a melting point of 129 to 132 °C. The “Fold Amiloride** (PSA 4022 = 100)” value in data set [1] (Capped Pyrazinoylguanidines) worked out at 52 ± 21.

In turn, `N=C(NCCCCc1ccc(OCC(=O)Nc2ccccc2)cc1)NC(=O)c1nc(Cl)c(N)nc1N` [compound 17482, 2-(4-{4-[N′-(3,5-diamino-6-chloropyrazine-2-carbonyl)guanidino]-butyl}phenoxy)-N-phenylacetamide] registered a melting point of 168 to 170 °C. Further, the “Fold Amiloride** (PSA 4022 = 100)” value in data set [1] (Capped Pyrazinoylguanidines) was 39 ± 6. Consider `CN(C)C(=S)Oc1ccc(CCCCNC(=N)NC(=O)c2nc(Cl)c(N)nc2N)cc1` [compound 17846, dimethylthiocarbamic acid O-(4-{4-[N′-(3,5-diamino-6-chloropyrazine-2-carbonyl)guanidino]butyl}phenyl) ester], for which the melting point fell in the range of 102 to 105 °C. The “Fold Amiloride** (PSA 4022 = 100)” value in data set [1] (Capped Pyrazinoylguanidines) amounted to 104 ± 49. For `Cl.N=C(NCCCCc1ccc(OCCCc2nnn[nH]2)cc1)NC(=O)c1nc(Cl)c(N)nc1N` [compound 17926, N-(3,5-diamino-6-chloropyrazine-2-carbonyl)-N′-(4-{4-[3-(1H-tetrazol-5-yl)propoxy]phenyl}butyl)guanidine hydrochloride] the same measures were 125 to 127 °C (dec.) and 29 ± 12. With `N=C(NCCCCCCCN)NC(=O)c1nc(Cl)c(N)nc1N` [compound 18705, N-(7-aminoheptyl)-N′-(3,5-diamino-6-chloropyrazine-2-carbonyl)guanidine], the melting point was 185 to 187 °C (dec.). The “Fold Amiloride** (PSA 4022 = 100)” value in data set [1] (Alaphatic Pyrazinoylguanidines) is on record as 8 ± 2. The EC50 in data set [1] turned out to be 99 ± 31 nM. Take `CC(C)[C@H](NS(=O)(=O)c1ccc(CCCCNC(=N)NC(=O)c2nc(Cl)c(N)nc2N)cc1)C(N)=O.Cl` [compound 19008, (2S)-(4-{4-[N′-(3,5-diamino-6-chloropyrazine-2-carbonyl)guanidino]-butyl}benzenesulfonylamino)-3-methylbutyramide]: the melting point is 154 to 156 °C (dec.). Besides, in data set [1] (Capped Pyrazinoylguanidines), the “Fold Amiloride** (PSA 4022 = 100)” value was determined as 54 ± 6. Regarding `CC(C)(C)OC(=O)NCCCCCCCCNC(=N)NC(=O)c1nc(Cl)c(N)nc1N` [compound 19156, {8-[N′-(3,5-diamino-6-chloropyrazine-2-carbonyl)guanidino]octyl}carbamic acid tert-butyl ester], the melting point is 189 to 191 °C. In data set [1] (Alaphatic Pyrazinoylguanidines), the “Fold Amiloride** (PSA 4022 = 100)” value is listed as 18 ± 2. For the same compound, in data set [1], the EC50 worked out at 46 ± 20 nM. For `CC(C)(C)OC(=O)NCCCOCCCNC(=N)NC(=O)c1nc(Cl)c(N)nc1N` [compound 19333] the same measures were 62 to 65 °C (dec.), 7 ± 2 and 81 ± 8 nM.

The values are drawn from patent US20050090505A1, “Methods of reducing risk of infection from pathogens” (priority 2003, published 2005).
